This is an account of results in patent US12653191B2, “Active compound combinations” (Bayer Aktiengesellschaft, priority 2020, dated 2026).

Several values for one entry are separate records, joined by “and”; a condition that tells them apart may be missing. Identical values can stand only once. Like-named read-outs stand apart in the source and are kept apart here.

For one test, the system named is Alternaria alternate. Kind of test: in vitro-Test with fungal microorganisms, Method A (tables A1-A12). In kind it is cell-based, Alternaria alternata. The conditions noted are these: Alternaria, applied alone, read-out: Efficacy %. The method, then:
(§1) Example: In Vitro-Test with Fungal Microorganisms
(§2) Wells of 96-well microtiter plates are filled with 10 μl of a preparation of test compound or compound combination in methanol+emulsifier alkylaryl-polyglycol-ether. Thereafter, the solvent is evaporated in a hood. At the next step, 100 μl of liquid potato dextrose medium is given into each well, that has been amended with an appropriate concentration of spores or mycelium suspension of the test fungus.
(§3) With the aid of a photometer, the extinction in all wells is measured at the wavelength of 620 nm.
(§4) The microtiter plates are incubated at 20° C. and 85% relative humidity. The inhibition of growth is determined again photometrically 3-5 days after the application. Efficacy is calculated in relation to the untreated control, 0% efficacy means fungal growth as high as in untreated control while 100% efficacy means no fungal growth is measured.
(§5) The data in tables A1 to A12, B1 to B14, C1 to C10, D1 to D8, E1 to E8, F1 to F11, G1 to G4, H1 to H4 and I1 to I5 were collected according to Method A. The data in tables A13 to A22, B15 to B18, C11 to C20, E9 to E16, F12 to F15, G5 to G15, H5 to H8, I6 to I11 and J1 to J11 were collected according to Method B.

A further test has as its system Alternaria alternata. Kind of test: in vitro-Test with fungal microorganisms, Method B (tables A13-A22). In kind it is cell-based. Here is the method: as §1
(§6) Wells of 96-well microtiter plates are filled with 30 μl of a preparation of test compound or compound combination in methanol+emulsifier alkylaryl-polyglycol-ether. Thereafter, the solvent is evaporated in a hood. At the next step, 200 μl of liquid growth medium is given, that has been amended with an appropriate concentration of spores or mycelium suspension of the test fungus.
(§7) With the aid of a photometer, the extinction in all wells is measured at the wavelength of 600 nm.
(§8) The microtiter plates are incubated for 3 to 7 days at 20° C. and 85% relative humidity. After the incubation inhibition of growth is determined photometrically. Efficacy is calculated in relation to the untreated control, 0% efficacy means fungal growth as high as in untreated control while 100% efficacy means no fungal growth is measured.
as §5

In the next test the test system is Botrytis cinerea. Kind of test: in vitro-Test with fungal microorganisms, Method A (tables B1-B14). In kind it is cell-based. The following applies: alone. Here is the method:
as §1, §2, §3, §4, §5

In test [1] the test system is Cercospora beticola. Kind of test: in vitro-Test with fungal microorganisms, Method A (tables C1-C10). Format: cell-based. Here is the method: as §1, §2, §3, §4, §5
The subject of test [2] is Cercospora beticola. Kind of test: in vitro-Test with fungal microorganisms, Method B (tables C11-C20). In kind it is cell-based. Here is the method: as §1, §6, §7, §8, §5
The test system of test [3] is Colletotrichum lindemuthianum. Kind of test: in vitro-Test with fungal microorganisms, Method A (tables D1-D8). In kind it is cell-based. Here is the method: as §1, §2, §3, §4, §5
For test [4], the system named is Cordana musae. The test can be described thus: in vitro-Test with fungal microorganisms, Method A (tables E1-E8). Format: cell-based. The following applies: Neocordana musae, single substance, read-out: Efficacy %. Here is the method: as §1, §2, §3, §4, §5
The test system of test [5] is Cordana musae. Kind of test: in vitro-Test with fungal microorganisms, Method B (tables E9-E16). The following applies: single active. Format: cell-based. Here is the method:
as §1, §6, §7, §8, §5

Another test has as its system Diaporthe citri. Kind of test: in vitro-Test with fungal microorganisms, Method A (tables F1-F11). Format: cell-based. Here is the method:
as §1, §2, §3, §4, §5

The next test relates to Fusarium culmorum. The test can be described thus: in vitro-Test with fungal microorganisms, Method B (tables G5-G15). In kind it is cell-based. The method, then:
as §1, §6, §7, §8, §5

A further test deals with Colletotrichum coccodes. The test can be described thus: in vitro-Test with fungal microorganisms, Method B (tables J1-J11). In kind it is cell-based. The method, then: as §1, §6, §7, §8, §5
In test [6] the test system is Ustilago segetum var. avenae. The test can be described thus: in vitro-Test with fungal microorganisms, Method B (tables I6-I11). In kind it is cell-based. Here is the method: as §1, §6, §7, §8, §5
[7] abbreviates: Cercospora beticola, read-out: Efficacy %.
Where [8] appears, read: Cercospora beticola, single compound, read-out: Efficacy %.
[9] abbreviates: Fusarium culmorum, alone, read-out: Efficacy.
Where [10] appears, read: Fusarium culmorum, single active compound, read-out: Efficacy.
Setting [11] is: single active compound at 4 ppm.

On to `OC(Cc1ccccc1Cl)(Cn1nc[nH]c1=S)C1(Cl)CC1` (stereo not drawn) [(1.018) prothioconazole, prothioconazole], for which the inhibition of growth at 0.008 ppm was determined as 20% with Alternaria alternate (0.008 ppm); 0% with Botrytis cinerea (Botrytis cinerea, 0.008 ppm, read-out: Efficacy %); 6% in the test on Cercospora beticola [1] (Cercospora beticola, 0.008 ppm, read-out: Efficacy %); 0% in test [3] (Colletotrichum lindemuthianum, mixing partner alone, 0.008 ppm, read-out: Efficacy %); 0% in the test with Diaporthe citri (Diaporthe citri, applied alone, 0.008 ppm, read-out: Efficacy). The inhibition of growth at 0.04 ppm with Alternaria alternate (0.04 ppm) amounted to 15%; in the test with Botrytis cinerea (Botrytis cinerea, 0.04 ppm, read-out: Efficacy %), 48%; with Cercospora beticola [1] (Cercospora beticola, 0.04 ppm alone, read-out: Efficacy %), 22%; in the test on Cercospora beticola [1] (Cercospora beticola, 0.04 ppm, read-out: Efficacy %), 38%; in test [3] (Colletotrichum lindemuthianum, mixing partner alone, 0.04 ppm, read-out: Efficacy %), 20%; in the test on Cordana musae [4] (0.04 ppm) it was 6%. Further, in the test on Diaporthe citri (Diaporthe citri, applied alone, 0.04 ppm, read-out: Efficacy), the inhibition of growth at 0.04 ppm was 95%. The inhibition of growth at 0.2 ppm amounted to 94% in the test on Alternaria alternate (0.2 ppm); 94% in the test on Botrytis cinerea (Botrytis cinerea, 0.2 ppm, read-out: Efficacy %); 100% in the test on Cercospora beticola [1] (Cercospora beticola, 0.2 ppm alone, read-out: Efficacy %); 100% in the test with Cercospora beticola [1] (Cercospora beticola, 0.2 ppm, read-out: Efficacy %); 100% in test [3] (Colletotrichum lindemuthianum, mixing partner alone, 0.2 ppm, read-out: Efficacy %); 100% in the test with Diaporthe citri (Diaporthe citri, applied alone, 0.2 ppm, read-out: Efficacy). Also, the inhibition of growth at 0.004 ppm in the test on Alternaria alternata (Alternaria alternata, single compound, 0.004 ppm, read-out: Efficacy) was 46%; with Cercospora beticola [2] (setting [7]), 39%; with Cercospora beticola [2] (setting [8]) it was 30%; in the test on Cordana musae [5] (Neocordana musae, 0.004 ppm, read-out: Efficacy) it was 0%; with Fusarium culmorum (setting [9]), 6%; in the test with Fusarium culmorum (setting [10]), 22%. In addition, the inhibition of growth at 0.004 ppm in the test on Colletotrichum coccodes (Colletotrichum coccodes, single active compound at 0.004 ppm, read-out: Efficacy %) was found to be 0%. For the same molecule, the inhibition of growth at 0.02 ppm in the test on Alternaria alternata (Alternaria alternata, single compound, 0.02 ppm, read-out: Efficacy) was 89%; in the test on Cercospora beticola [2] (Cercospora beticola, single compound, 0.02 ppm, read-out: Efficacy %), 0%; with Fusarium culmorum (setting [9]), 52%; in the test with Fusarium culmorum (setting [10]), 22%; in the test on Colletotrichum coccodes (Colletotrichum coccodes, single active compound at 0.02 ppm, read-out: Efficacy %), 1%. Also, the inhibition of growth at 0.1 ppm with Alternaria alternata (Alternaria alternata, single compound, 0.1 ppm, read-out: Efficacy) came to 100%; with Cercospora beticola [2] (setting [7]), 100%; with Cercospora beticola [2] (setting [8]), 15%; in the test on Cordana musae [5] (Neocordana musae, 0.1 ppm, read-out: Efficacy), 81%; in the test on Fusarium culmorum (Fusarium culmorum, 0.1 ppm, alone, read-out: Efficacy) it was 98%. Moreover, the inhibition of growth at 0.5 ppm stood at 99% with Alternaria alternata (Alternaria alternata, single compound, 0.5 ppm, read-out: Efficacy); 100% in the test with Cercospora beticola [2] (setting [7]); 0% in the test with Cercospora beticola [2] (setting [8]); 100% in the test with Cordana musae [5] (Neocordana musae, 0.5 ppm, read-out: Efficacy); 100% in the test with Colletotrichum coccodes (Colletotrichum coccodes, single active compound at 0.5 ppm, read-out: Efficacy %). The inhibition of growth at 1 ppm stood at 100% in the test on Botrytis cinerea (Botrytis cinerea, 1.0 ppm, read-out: Efficacy %); 100% with Cercospora beticola [1] (Cercospora beticola, 1.0 ppm alone, read-out: Efficacy %); 100% in the test with Cercospora beticola [1] (Cercospora beticola, 1.0 ppm, read-out: Efficacy %); 100% in test [3] (Colletotrichum lindemuthianum, mixing partner alone, 1.0 ppm, read-out: Efficacy %); 100% in the test on Cordana musae [4] (1.0 ppm); 99% in the test on Diaporthe citri (Diaporthe citri, applied alone, 1.0 ppm, read-out: Efficacy). Further, the Efficacy % with Cercospora beticola [1] (0.2 ppm alone) is reported as 98%.

Regarding `COCC(=O)N(c1c(C)cccc1C)[C@H](C)C(=O)OC` [(12.004) metalaxylm], the Efficacy % in test [6] (0.8 ppm) was determined as 8%; in test [6] (100 ppm), 3%; in the test on Colletotrichum coccodes (single active compound at 0.8 ppm), 40%; in the test with Colletotrichum coccodes (setting [11]), 24%; in the test with Colletotrichum coccodes (single active compound at 20 ppm), 48%; in the test with Colletotrichum coccodes (single active compound at 100 ppm), 61%.

`Fc1ccc(Oc2ccnc3cc(Cl)cc(Cl)c23)cc1` [(13.005) quinoxifen]: the Efficacy % in the test with Cercospora beticola [2] (single compound, 0.08 ppm) is 3%.

Consider `CCO[PH](=O)[O-].CCO[PH](=O)[O-].CCO[PH](=O)[O-].[Al+3]` [(15.012) fosetyl-al], for which the Efficacy in the test with Cordana musae [5] (0.8 ppm) was 0%.

On to `CCO[PH](=O)[O-].CCO[PH](=O)[O-].CCO[PH](=O)[O-].[Al+3]` [(15.012) fosetyl-aluminium, fosetyl-aluminium], for which the Efficacy % was 0% in [3] (mixing partner alone, 4.0 ppm); 8% in test [3] (mixing partner alone, 20.0 ppm); 70% in [3] (mixing partner alone, 100.0 ppm); 0% in test [3] (single active at 0.8 ppm); 0% in test [3] (single active at 4.0 ppm); 39% and 58% in test [3] (single active at 100.0 ppm). The Efficacy with Diaporthe citri (Table F11, 0.8 ppm alone) is reported as 23%; in the test on Diaporthe citri (Table F11, 4.0 ppm alone), 0%; in the test with Diaporthe citri (Table F11, 20.0 ppm alone), 0%; in the test on Diaporthe citri (Table F11, 100.0 ppm alone) it was 0%; in the test with Diaporthe citri (applied alone, 0.8 ppm) it was 0%; with Diaporthe citri (applied alone, 4.0 ppm), 23%. For the same molecule, the Efficacy in the test on Diaporthe citri (applied alone, 100.0 ppm) amounted to 30%.

`CCO[PH](=O)[O-].CCO[PH](=O)[O-].CCO[PH](=O)[O-].[Al+3]` [(15.012) fosetylaluminium]: the Efficacy % is 0% with Botrytis cinerea (0.8 ppm), 13% with Botrytis cinerea (4.0 ppm) and 1% in the test with Botrytis cinerea (100.0 ppm).

For `CS(=O)(=O)Oc1cccc(Cl)c1C1CC(c2csc(C3CCN(C(=O)Cn4nc(C(F)F)cc4C(F)F)CC3)n2)=NO1` (stereo not drawn) [(15.043) fluoxapiprolin, fluoxa-piprolin], the Efficacy % in the test with Cercospora beticola [2] (single compound, 0.8 ppm) was 0%; with Cercospora beticola [2] (single compound, 4 ppm), 3% and 0%; in the test on Cercospora beticola [2] (single compound, 20 ppm), 0%; in the test with Colletotrichum coccodes (0.8 ppm), 0%; in the test on Colletotrichum coccodes (20 ppm), 0%; with Colletotrichum coccodes (setting [11]), 0% and 2%. Further, the Efficacy came to 0% in the test with Cordana musae [5] (20 ppm); 13% in the test on Fusarium culmorum (single active compound, 0.8 ppm); 14% in the test with Fusarium culmorum (single active compound, 4 ppm).

As for `CCO[PH](=O)O` [fosetylal], the Efficacy is 0% in the test on Alternaria alternata (4 ppm); 4% in the test on Alternaria alternata (20 ppm); 8% in the test with Alternaria alternata (100 ppm); 0% in the test on Alternaria alternata (single compound, 0.8 ppm); 2% in the test on Alternaria alternata (single compound, 4 ppm); 11% in the test with Fusarium culmorum (0.8 ppm, alone).

In the case of `CCCN(CC)CC1COC2(CCC(C(C)(C)C)CC2)O1` (stereo not drawn) [spiroxamin], the Efficacy is recorded as 3% in the test with Alternaria alternata (single compound, 0.8 ppm); 15% in the test on Alternaria alternata (single compound, 4 ppm); 15% in the test with Alternaria alternata (single compound, 20 ppm); 3% with Fusarium culmorum (0.8 ppm, alone).
